Measured values from article PMC10065799, “High-throughput profiling of sequence recognition by tyrosine kinases and SH2 domains using bacterial peptide display” (eLife, 2023).

Assays:
Test in all cases: pTyr-Var library bacterial peptide display kinase screen (enrichment scores)
[1] = molecular target: c-Src kinase domain (Homo sapiens, UniProt P12931); assay type: biochemical; settings: for Screen: sheet "Src";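 as to screen: log2 fold change in enrichment of variant over reference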
[2] = molecular target: T1, c-Abl kinase domain (Mus musculus, UniProt P00520); assay type: biochemical;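 also: log2 fold change in enrichment of variant over reference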
T1 sequence (P00520 242-493 limits assumed): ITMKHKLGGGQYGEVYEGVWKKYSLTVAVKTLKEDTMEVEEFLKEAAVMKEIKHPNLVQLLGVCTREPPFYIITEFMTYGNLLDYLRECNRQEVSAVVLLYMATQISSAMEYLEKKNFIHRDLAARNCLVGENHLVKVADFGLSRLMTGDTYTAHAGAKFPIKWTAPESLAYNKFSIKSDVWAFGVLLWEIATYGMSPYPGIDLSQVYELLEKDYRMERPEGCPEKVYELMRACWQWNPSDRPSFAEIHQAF

[3] = tested on: Fer kinase domain; assay type: biochemical, mouse; settings: sheet "Fer";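 also: log2 fold change in enrichment of variant over reference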
[4] = effect of the variant peptide relative to its reference peptide in the pTyr-Var library screen
[5] = sheet "Abl", effect of variant peptide relative to its reference peptide in pTyr-Var library screen (enrichment)
[6] = variant peptide versus its reference peptide in the pTyr-Var library screen
[7] = fig5-data2, sheet "Abl", Screen for the variant/reference peptide pair, pTyr-Var library
[8] = variant peptide relative to its reference peptide, pTyr-Var library screen enrichment
[9] = value of the variant peptide against its reference peptide in the pTyr-Var library screen with Fer

AHAGEYGAVAL [HBA1_Y25_E28V]
Screen [1, 4]: 2.935

APRKVYDTQDD [ZFPL1_Y215_R218Q]
Screen [2, 5]: 3.612

ARSHIYTLASC [MEFV_Y741_F743L]
Screen [1, 4]: 0.6764

ATRDVYNPFET [SCAMP3_Y41_L38R]
Screen [1, 6]: -1.143

AVRFIYTIDGS [DCX_Y105_G100A_YF]
Screen [1, 4]: 0.6298

CEAMEYPESKQ [BTK_Y511_L512P]
Screen [2, 7]: -1.088

CFCSWYRGWAP [TIMP3_Y195_G190C_YF]
Screen [1, 6]: 2.542 | Screen [3, 8]: 2.823

CGTPDYIAREI [PRKCG_Y521_P524R]
Screen [2, 7]: 0.3032

CGTPEYRAPEI [PRKACA_Y205_L206R]
Screen [2, 7]: 0.964

CKLVDYDSARH [BIN1_Y150_R145C]
Screen [2, 7]: 0.9945

CLNAIYQNNLT [GSR_Y158_R153C]
Screen [3, 9]: 1.727

CTTIRYNFMCN [TP53_Y234_H233R_YF]
Screen [2, 5]: 1.107

CVRTIYTIDGS [DCLK2_Y124_G119C]
Screen [1, 4]: 0.3247

DFFDLYGGEKK [PTPN11_Y66_F71K_YF]
Screen [1, 6]: -0.3154 | Screen [2, 7]: 0.6551

DQVEQYNKELE [LMNA_Y259_K260N]
Screen [2, 7]: -0.1463

DTLASYLDKVR [KRT12_Y139_R135T]
Screen [2, 7]: -1.083

ECIEFYELDKK [PMM2_Y145_R141C]
Screen [2, 7]: 0.4752

EDKSIYRRGAC [PRKCI_Y125_R130C]
Screen [2, 7]: 0.9369

EGWQVYRLGTR [MISP_Y95_A99T]
Screen [1, 4]: -0.2875

EKGEEYGGGGG [TUBA1A_Y451_E447K]
Screen [2, 5]: 1.685

EKKKFYDAKIE [CASP5_Y104_T106A_YF]
Screen [2, 7]: 2.357

ELTSVYGSRAR [SENP1_Y349_D350G]
Screen [1, 6]: 0.9781

EVASVYESFQP [MAVS_Y92_Q93E_YF]
Screen [1, 4]: 0.01447 | Screen [3, 9]: 1.389

EWQQIYTFDSG [JUP_Y20_T19I_YF]
Screen [1, 4]: 0.7952 | Screen [3, 9]: 3.242

FAFQLYDLDPD [CHP2_Y123_R127P_YF]
Screen [1, 4]: 0.6897

FDAHIYEGCVI [PRKCD_Y64_R67C]
Screen [1, 6]: 0.6982 | Screen [3, 9]: 2.331

FFRNVYHLASV [RBL1_Y796_K794N_YF]
Screen [2, 7]: -1.016

FSGKAYADEEQ [CRIM1_Y826_R831Q]
Screen [2, 7]: 0.3767

FSMGCYEISLE [HMGCL_Y198_G203E_YF]
Screen [1, 4]: -0.09414 | Screen [3, 9]: -0.6623

GGPAEYLRRAS [PKLR_Y38_G37E]
Screen [2, 7]: 0.6619

GKSFIYAAFHA [KCNT1_Y563_T562I]
Screen [1, 4]: -0.6339

GLCSFYETSKM [MAGED2_Y449_R446C_YF]
Screen [3, 9]: 1.926

GLIPAYHWVIM [NMNAT1_Y64_R66W]
Screen [3, 9]: 3.48

HISGVYKLPPD [ANGPTL7_Y145_R140H]
Screen [1, 4]: 1.474

IGEVVYQRAAM [GRIN2A_Y502_V506A]
Screen [1, 4]: -0.3302

IMITGYLLLFR [INSR_Y87_D86G]
Screen [2, 7]: 0.04202

IRRIAYEFVEM [ADA_Y84_K80R]
Screen [3, 9]: -0.04574

ISHVAYLVLGK [TRRAP_Y892_R893L]
Screen [2, 5]: -1.807

KDPPDYKFQPR [SOX9_Y172_H169P_YF]
Screen [2, 5]: -0.03774

LDPDSYNKFEN [FOXC1_Y159_M161K]
Screen [2, 7]: 0.592

LGKGSYAKVRS [TSSK2_Y23_K27R]
Screen [1, 6]: -0.7681 | Screen [2, 5]: 0.9991

LITTLYIDFLG [KCNQ1_Y267_G269D]
Screen [1, 4]: -1.548

LITTLYIGFLD [KCNQ1_Y267_G272D]
Screen [1, 4]: 0.3249 | Screen [3, 9]: 0.7229

LNSFIYSLRNR [OR1A1_Y288_P285S]
Screen [1, 6]: 0.8467 | Screen [2, 7]: 0.03527

LRAGVYREKDQ [DNM2_Y626_P627R]
Screen [2, 7]: -0.9512

LTDTVYSSSSA [OR4C12_Y71_I67T]
Screen [1, 6]: -0.5241 | Screen [3, 9]: 0.3207

LTQRTYMLENA [GPAA1_Y49_S51L]
Screen [2, 7]: -1.886

MSRDVYSIDFF [NTRK2_Y702_T704I_YF]
Screen [1, 6]: 1.303

NACGLYHTMNG [GATA5_Y216_K218T]
Screen [1, 4]: 2.558

NDPMEYAKQHG [ASS1_Y163_L160P]
Screen [2, 7]: 0.6452

NFGTNYRVGSS [CPO_Y278_K273N_YF]
Screen [2, 7]: 0.7292

NHFKIYNPCAE [PTEN_Y68_L70P_YF]
Screen [1, 6]: -2.716 | Screen [2, 7]: 0.7094

NTGFFYDLFGG [PTPN11_Y63_D61Y_YF]
Screen [1, 6]: -0.6353 | Screen [3, 8]: -1.238

NTGNFYDLFGG [PTPN11_Y63_D61N_YF]
Screen [1, 6]: 0.1419 | Screen [3, 9]: 0.7498

PAVGIYNGNIN [CDCP1_Y707_D709G]
Screen [1, 4]: 0.5447

PFRFIYMAVQH [PTPN11_Y515_Q510P_YF]
Screen [1, 6]: -0.7023

PFSNSYENSLI [EPOR_Y489_P488S_YF]
Screen [3, 9]: -1.474

PLDGEYFTRQI [TP53_Y327_L330R]
Screen [1, 6]: -2.245 | Screen [2, 5]: 1.752

PLDGEYLTLQI [TP53_Y327_F328L]
Screen [1, 6]: -1.75

PMDGEYFTLQI [TP53_Y327_L323M]
Screen [1, 6]: 0.4461 | Screen [3, 8]: 0.4582

PQIVKYRPDCI [LDHB_Y128_S129R]
Screen [2, 7]: -0.6179

PRRRFYVVACD [RNASE3_Y134_G130R]
Screen [1, 6]: -1.377

QAEELYFGKMG [YES1_Y159_W158L]
Screen [1, 6]: 2.237

QDEPTYARSSK [PEAK1_Y616_H611Q]
Screen [2, 7]: 1.067

QFFQGYFNNNF [ZNF236_Y644_S643G]
Screen [2, 5]: 3.465

QHVPDYRQNGF [PCDHGB6_Y889_V893G_YF]
Screen [2, 7]: -1.654

QITQVYGFFHE [PPP2CA_Y127_D131H_YF]
Screen [1, 6]: 0.1908

QLLIEYPPEEV [ZZZ3_Y670_K669E]
Screen [2, 5]: 2.193

QRRFLYFFSFL [PTEN_Y176_V175L_YF]
Screen [3, 9]: -0.3574

QRRLIYRCQVG [NR2E3_Y81_R76Q]
Screen [2, 7]: 1.984

QRRLVYFERGA [RYR1_Y245_G248R_YF]
Screen [2, 7]: 1.153

RAMPVYEKAEH [TP63_Y231_K232E]
Screen [3, 8]: 2.795

RDSQIYAVDFE [MRPS34_Y34_L33I_YF]
Screen [1, 4]: 2.537

REGAKYVSHGT [ASS1_Y113_A118T]
Screen [2, 7]: 0.5424

RGDTVYTVNCM [KBTBD13_Y404_R408C]
Screen [1, 4]: -0.9987

RNDRVYQPLRD [CD3D_Y149_Q147R]
Screen [1, 4]: -1.537

RNGDRYFKEIV [DCX_Y64_G67E]
Screen [2, 7]: 1.189

RPIEVYLCPEE [E2F3_Y349_G344R]
Screen [1, 4]: 1.834

RTVDVYFGPQM [KIRREL3_Y332_R336Q]
Screen [1, 4]: 1.347

SGLDSYVRSLP [TRAPPC1_Y133_R129G]
Screen [2, 5]: -0.62

SKNSKYNAGST [PSEN1_Y315_E318G]
Screen [2, 7]: -0.477

STEAIYWRFSK [SH3PXD2B_Y42_R43W_YF]
Screen [1, 6]: 2.709

SVVVPYEPPEL [TP53_Y220_V225L]
Screen [2, 5]: 0.6095

TAGFIYEKWEI [TEC_Y360_S359I]
Screen [1, 6]: 3.208 | Screen [3, 8]: 3.032

TGQEDYDRLRP [RAC1_Y64_A59T]
Screen [2, 7]: -1.28

TSPALYRLDLD [TRIL_Y352_A347T]
Screen [1, 6]: -0.36 | Screen [2, 5]: -0.2355

VDGFVYKLHPS [GCK_Y413_S411F]
Screen [1, 4]: -2.399

VEDQFYRVDCF [FHL1_Y208_C209R_YF]
Screen [1, 4]: -0.6364 | Screen [2, 7]: 0.3405

VFAANYFKLLG [ROR2_Y645_D644N_YF]
Screen [2, 7]: 0.3272

VNFGAYINDFN [GLB1_Y488_K493N_YF]
Screen [2, 7]: 0.7194

VQQVIYATRAL [MYH7_Y422_G425R]
Screen [1, 6]: 0.27 | Screen [2, 7]: -0.009809

VTAALYGCLFE [BTD_Y536_R538C_YF]
Screen [1, 4]: -0.3028 | Screen [2, 7]: -0.06766

WANPEYTGGFK [TTN_Y22309_K22306N]
Screen [2, 5]: -1.867

YDDGKYVYVVT
Enrichment score (mean) ([1]; pTyr-Var library screen with c-Src, sheet "Src substrates": annotated Src substrate sites, 11-residue peptide SITE_+/-5_AA, mean): 1.305
